Source: US5389663A, “1-(1h-1,2,4-triazole-yl)-2-propanol compounds” (Takeda Chemical Industries, Ltd., priority 1991, dated 1995)

Tests used:
Candida albicans = test: Protective effect against Candida albicans infection in mice; type: in vivo, Crj:CDF1 mice; settings: 168 h, minimum lethal dose of Candida albicans iv, drug once immediately after infection, survival 7 days after infection
From the text: Test Method: Five-week old Crj:CDF1 mice were inoculated with the minimum lethal dose of Candida albicans intravenously. The test drug was given once immediately after infection. The effectiveness of the drug was expressed in ED50 values calculated by the Reed and Muench method from the survival rate 7 days after infection.

[1] = tested on: Aspergillus fumigatus IFO 6344; test: Paper disc agar diffusion, growth inhibition zone, Aspergillus fumigatus IFO 6344; type: cell-based; settings: IFO6344, 48 h, Table 4, medium A, 28° C., two days, 1000 μ/ml, 8 mm disc, read-out: Diameter of growth inhibition zone
Experimental: (§1) Evaluation of the antifungal activities of the compound of formula (I) was conducted by the following method: a sheet of filter paper disc (manufactured by Toyo Seisakusho, 8 mm in diameter) soaked in a […] solution of a compound of formula (I) in methanol was placed on an agar plate containing various fungi, which was incubated at 28° C. for two days, and the diameter of the growth inhibition zone around the filter paper disc was measured. The following culture media were used: A: yeast nitrogen base agar medium (pH 7.0) B: Sabouraud agar medium

Candida utilis IFO 0619 = test: Paper disc agar diffusion, growth inhibition zone, Candida utilis IFO 0619; type: cell-based; settings: Williopsis jadinii, IFO0619, 48 h; Table 4; medium A, 28° C., two days, 1000 μ/ml, 8 mm disc; read-out: Diameter of growth inhibition zone
Experimental: as §1

[2] = tested on: Aspergillus niger IFO 4066; test: Paper disc agar diffusion, growth inhibition zone, Aspergillus niger IFO 4066; type: cell-based; settings: IFO4066, 48 h, Table 4, medium A, 28° C., two days, 1000 μ/ml, 8 mm disc, read-out: Diameter of growth inhibition zone
Experimental: as §1

[3] = tested on: Cryptococcus neoformans IFO 0410; test: Paper disc agar diffusion, growth inhibition zone, Cryptococcus neoformans IFO 0410; type: cell-based; settings: IFO0410, 48 h, Table 4, medium A, 28° C., two days, 1000 μ/ml, 8 mm disc, read-out: Diameter of growth inhibition zone
Experimental: as §1

[4] = tested on: Microsporum gypseum IFO 6075; test: Paper disc agar diffusion, growth inhibition zone, Microsporum gypseum IFO 6075; type: cell-based; settings: Nannizzia gypsea, IFO6075, 48 h; Table 4; medium B (Sabouraud agar), 28° C., two days, 1000 μ/ml, 8 mm disc; read-out: Diameter of growth inhibition zone
Experimental: as §1

[5] = tested on: Candida albicans IFO 0583; test: Paper disc agar diffusion, growth inhibition zone, Candida albicans IFO 0583; type: cell-based; settings: 48 h, pH 7, Table 4; medium A (yeast nitrogen base agar, pH 7.0), 28° C., two days, 1000 μ/ml in methanol, 8 mm disc; read-out: Diameter of growth inhibition zone
Summary of the method: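 An 8 mm filter-paper disc soaked in a […] methanol solution of compound was laid on yeast nitrogen base agar (pH 7.0) seeded with fungus. Plates were incubated for two days at 28 °C, and the diameter of the growth inhibition zone was measured.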

[6] = tested on: Trichophyton rubrum IFO 6467; test: Paper disc agar diffusion, growth inhibition zone, Trichophyton rubrum IFO 6467; type: cell-based; settings: IFO6467, 48 h, Table 4, medium B (Sabouraud agar), 28° C., two days, 1000 μ/ml, 8 mm disc, read-out: Diameter of growth inhibition zone
Experimental: as §1

[7] = tested on: Trichophyton mentagrophytes IFO 7522; test: Paper disc agar diffusion, growth inhibition zone, Trichophyton mentagrophytes IFO 7522; type: cell-based; settings: IFO7522, 48 h, Table 4, medium B (Sabouraud agar), 28° C., two days, 1000 μ/ml, 8 mm disc, read-out: Diameter of growth inhibition zone
Experimental: as §1

Compound	ED50 (Candida albicans; po) [mg/kg]	ED50 (Candida albicans; sc) [mg/kg]	zone of inhibition at 1000 µg/mL [1] [mm]	zone of inhibition at 1000 µg/mL (Candida utilis IFO 0619) [mm]	zone of inhibition at 1000 µg/mL [2] [mm]	zone of inhibition at 1000 µg/mL [3] [mm]	zone of inhibition at 1000 µg/mL [4] [mm]	zone of inhibition at 1000 µg/mL [5] [mm]	zone of inhibition at 1000 µg/mL [6] [mm]	zone of inhibition at 1000 µg/mL [7] [mm]
C[C@H]([C@](O)(Cn1cncn1)c1ccc(F)cc1F)S(=O)(=O)N(C)C [Compound 2, N,N-dimethyl-[(2R,3R)-3-(2,4-difluorophenyl)-3-hydroxy-4-(1H-1,2,4-triazol-1-yl) -2-butane]sulfonamide]	5	5	25	36	25	38	22	25	35	25
C[C@H]([C@](O)(Cn1cncn1)c1ccc(F)cc1F)S(=O)(=O)N1CCN(c2ccccc2)CC1 [Compound 23]	7.1		22	45	20	40	30	45	40	25
